According to patent publication US9611289B2, “Farnesoid X receptor modulators” (Intercept Pharmaceuticals, Inc., priority 2013, dated 2017):
In brackets after ≈: the same amount, converted by molar mass. Structures can show the parent of a compound that is named as a salt. Where two headings read alike, the source gives them in different places. Blank lines part the entries; values can stand above or below the compound they belong to.

What was measured:
[1] = Critical micellar concentration; format: physicochemical; settings: […] NaCl water solution
Surface tension at CMC = format: physicochemical; settings: […] NaCl water solution
[2] = 1-octanol-water partition coefficient (LogPA-); settings: ionized species
CYP2C19 = CYP2C19 (Homo sapiens, UniProt P33261); test: biochemical
hERG potassium channel = hERG potassium channel (Homo sapiens, UniProt Q12809); test: PREDICTOR hERG Fluorescence Polarization assay; settings: CHO-hERG membrane preparations
PXR [3] = biological target: T1, PXR (Homo sapiens, UniProt O75469); test: AlphaScreen nuclear receptor activation; format: biochemical
T1 sequence (O75469 1-434): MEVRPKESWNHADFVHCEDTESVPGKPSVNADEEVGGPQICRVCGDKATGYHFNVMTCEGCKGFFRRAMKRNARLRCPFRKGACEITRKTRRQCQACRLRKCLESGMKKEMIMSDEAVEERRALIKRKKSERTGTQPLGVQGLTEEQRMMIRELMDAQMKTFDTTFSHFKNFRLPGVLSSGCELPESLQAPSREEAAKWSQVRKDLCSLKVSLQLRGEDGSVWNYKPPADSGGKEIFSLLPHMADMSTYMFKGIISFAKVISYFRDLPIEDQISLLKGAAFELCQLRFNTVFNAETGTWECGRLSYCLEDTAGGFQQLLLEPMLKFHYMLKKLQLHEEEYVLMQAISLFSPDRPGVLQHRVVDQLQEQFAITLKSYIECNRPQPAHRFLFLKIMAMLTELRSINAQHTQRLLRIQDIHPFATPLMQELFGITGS

CYP2D6 = CYP2D6 (Homo sapiens, UniProt P10635); test: biochemical
CYP1A2 = biological target: T2, CYP1A2 (Homo sapiens, UniProt P05177); test: biochemical
T2 sequence (P05177 1-516): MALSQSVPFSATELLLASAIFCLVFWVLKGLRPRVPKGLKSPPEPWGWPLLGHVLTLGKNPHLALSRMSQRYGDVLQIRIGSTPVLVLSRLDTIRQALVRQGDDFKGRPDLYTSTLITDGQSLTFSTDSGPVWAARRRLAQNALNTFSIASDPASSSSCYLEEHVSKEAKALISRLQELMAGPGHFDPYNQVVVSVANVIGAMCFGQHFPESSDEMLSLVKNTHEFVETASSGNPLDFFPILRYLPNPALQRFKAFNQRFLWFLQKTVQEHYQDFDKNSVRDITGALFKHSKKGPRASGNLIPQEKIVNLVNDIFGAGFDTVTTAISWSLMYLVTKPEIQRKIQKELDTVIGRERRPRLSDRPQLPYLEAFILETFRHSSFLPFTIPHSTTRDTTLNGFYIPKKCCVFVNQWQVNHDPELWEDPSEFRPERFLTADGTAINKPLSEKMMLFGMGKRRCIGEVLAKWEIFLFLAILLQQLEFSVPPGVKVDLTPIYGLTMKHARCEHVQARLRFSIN

RARα = RARα (Homo sapiens, UniProt P10276); test: AlphaScreen nuclear receptor activation; format: biochemical
HepG2 cells [4] = test: Cell viability by intracellular ATP in HepG2 cells; format: cell-based, human; settings: 4 h, different concentrations, FIG. 6
CYP3A4 [5] = biological target: T3, CYP3A4 (Homo sapiens, UniProt P08684); test: CYP450 inhibition, recombinant baculosomes, fluorescent signal; settings: read-out: CYP3A4 (Green Substrate) IC50
CYP2E1 = CYP2E1 (Homo sapiens, UniProt P05181); test: biochemical
HepG2 cells [6] = settings: for living cells: LDH measure
CYP2C9 = CYP2C9 (Homo sapiens, UniProt P11712); test: biochemical
CYP3A4 [7] = biological target: T3, CYP3A4; test: biochemical
CAR = CAR (Homo sapiens, UniProt Q14994); settings: read-out: CAR Activation EC50; *inverse agonist; taken from Rizzo et al. 2010; cited from earlier work
FXR target genes = test: Quantitative RT-PCR of FXR target genes in HepG2 cells; format: cell-based, human; settings: 1 μM, overnight
PXR [8] = biological target: T1, PXR; settings: taken from Rizzo et al. 2010; cited from earlier work
PR = PR (Homo sapiens, UniProt P06401); test: AlphaScreen nuclear receptor activation; format: biochemical
HepG2 cells [9] = test: cells; settings: Homo sapiens, HepG2, read-out: Membrane integrity EC50 (μM) (LDH measure)

SMILES: CC[C@H]1[C@@H](O)C2C3CCC(C(C)CC(C)C(=O)O)[C@@]3(C)[C@@H](O)CC2[C@@]2(C)CC[C@@H](O)C[C@@H]12 (stereo in doubt) [Compound C, 6α-ethyl-23(S)-methyl-3α,7α,12α trihydroxy-5β-cholan-24-oic acid]
CMC(b) (mM) Critical Micellar Concentration [1]: 2 mM
STCMC(c) (Dyne/cm) Surface Tension at CMC (Surface tension at CMC): 50.1 Dyne/cm
LogPA−(d) 1-octanol-water partition coefficient [2]: 1.4

CMC(b) (mM) Critical Micellar Concentration [1]: 3.2 mM
STCMC(c) (Dyne/cm) Surface Tension at CMC (Surface tension at CMC): 45.5 Dyne/cm
LogPA−(d) 1-octanol-water partition coefficient [2]: 2.2
SMILES: C[C@H](CCC(=O)O)[C@H]1CC[C@H]2[C@@H]3[C@H](O)C[C@@H]4C[C@H](O)CC[C@]4(C)[C@H]3CC[C@]12C [CDCA, chenodeoxycholic acid]

SMILES: CC[C@H]1[C@@H](O)[C@@H]2[C@H]([C@@H](O)C[C@]3(C)[C@@H]([C@H](C)CCC(=O)O)CC[C@@H]23)[C@@]2(C)CC[C@@H](O)C[C@@H]12 [Compound 100, 3α,7α,11β-trihydroxy-6α-ethyl-5β-cholan-24-oic acid]
IC50 (CYP2C19): > 10 µM
block or inhibition of the hERG potassium channel (hERG potassium channel): does not block or inhibit
PXR Activation EC50 (μM) (PXR [3]): No activity
IC50 (CYP2D6): > 10 µM
IC50 (CYP1A2): > 10 µM
RARα Activation EC50 (μM) (RARα): No activity
viable cells (ATP measurement) (HepG2 cells [4]): 100%
IC50 (CYP3A4 [5]): > 10 µM
IC50 (CYP2E1): > 10 µM
solubility (Water solubility): 143 to 150 µM (≈ 62.4 to 65.5 µg/mL)
LogPA−(d) 1-octanol-water partition coefficient [2]: 0.8
living cells (HepG2 cells [6]; HepG2 cells): (100% living cells)
cytotoxic effect on HepG2 cells (HepG2 cells [6]; LDH release): does not induce any cytotoxic effect
IC50 (CYP2C9): > 10 µM
IC50 (CYP3A4 [7]): > 10 µM

SMILES: CC[C@H]1[C@@H](O)C2C3CC[C@H]([C@H](C)CCC(=O)O)[C@@]3(C)C[C@@H](O)C2[C@@]2(C)CC[C@@H](O)C[C@@H]12 (stereo partly drawn) [Compound 101]
Membrane integrity EC50 (μM) (LDH measure) (HepG2 cells [6]; HepG2 cells): No toxicity
living cells (HepG2 cells [6]; HepG2 cells): (100% living cells)

SMILES: CC[C@H]1[C@@H](O)[C@@H]2[C@H](CC[C@]3(C)[C@@H]([C@H](C)CCOS(=O)(=O)O)CC[C@@H]23)[C@@]2(C)CC[C@@H](O)C[C@@H]12 [Compound B, 6α-ethyl-3α,7α,23-trihydroxy-24-nor-5β-cholan-23-sulfate sodium salt]
EC50 (CAR): 44 µM
IC50 (CYP2C19): > 10 µM
block or inhibition of the hERG potassium channel (hERG potassium channel): does not block or inhibit
IC50 (CYP2D6): > 10 µM
IC50 (CYP1A2): > 10 µM
IC50 (CYP3A4 [5]): > 10 µM
IC50 (CYP2E1): > 10 µM
LogPA−(d) 1-octanol-water partition coefficient [2]: 2.0
CYP7α1 gene expression (FXR target genes): down
PXR Activation EC50 (μM) (PXR [8]): No activity
IC50 (CYP2C9): > 10 µM
IC50 (CYP3A4 [7]): > 10 µM

SMILES: CC[C@H]1[C@@H](O)C2C3CC[C@H]([C@H](C)C[C@H](C)C(=O)O)[C@@]3(C)CCC2[C@@]2(C)CC[C@@H](O)C[C@@H]12 (stereo partly drawn) [Compound D, 6α-ethyl-23(R)-methyl chenodeoxycholic acid]
solubility (Water solubility): 15 µM (≈ 6.52 µg/mL)
LogPA−(d) 1-octanol-water partition coefficient [2]: 2.9

SMILES: CC[C@H]1[C@@H](O)C2C3C[C@H](O)[C@H]([C@H](C)CCC(=O)O)[C@@]3(C)CCC2[C@@]2(C)CC[C@@H](O)C[C@@H]12 (stereo partly drawn) [Compound E]
CMC(b) (mM) Critical Micellar Concentration [1]: 5.9 mM
STCMC(c) (Dyne/cm) Surface Tension at CMC (Surface tension at CMC): 52.4 Dyne/cm
solubility (Water solubility): 120 µM (≈ 52.4 µg/mL)
LogPA−(d) 1-octanol-water partition coefficient [2]: 1.6

EC50 (PR): 0.05 µM
SMILES: C[C@]12C[C@H](O)[C@H]3[C@@H](CCC4=CC(=O)CC[C@@]43C)[C@@H]1CC[C@@H]2C(=O)CO [Corticosterone]

EC50 (HepG2 cells [9]): 75 ± 5 µM
SMILES: C[C@H](CCC(=O)O)[C@H]1CC[C@H]2[C@@H]3CC[C@@H]4C[C@H](O)CC[C@]4(C)[C@H]3CC[C@]12C [LCA, lithocholic acid]

CMC(b) (mM) Critical Micellar Concentration [1]: 3.0 mM
LogPA−(d) 1-octanol-water partition coefficient [2]: 0.9
SMILES: C[C@H](CCC(=O)NCCS(=O)(=O)O)[C@H]1CC[C@H]2[C@@H]3[C@H](O)C[C@@H]4C[C@H](O)CC[C@]4(C)[C@H]3CC[C@]12C [TCDCA, taurochenodeoxycholic acid]

CMC(b) (mM) Critical Micellar Concentration [1]: 2.2 mM
LogPA−(d) 1-octanol-water partition coefficient [2]: 1.1
SMILES: C[C@H](CCC(=O)NCCS(=O)(=O)O)[C@H]1CC[C@H]2[C@@H]3[C@@H](O)C[C@@H]4C[C@H](O)CC[C@]4(C)[C@H]3CC[C@]12C [TUDCA, tauroursodeoxycholic acid]

CMC(b) (mM) Critical Micellar Concentration [1]: 6 to 10 mM
STCMC(c) (Dyne/cm) Surface Tension at CMC (Surface tension at CMC): 50.5 Dyne/cm
solubility (Water solubility): 7 to 7.5 µM (≈ 2.75 to 2.94 µg/mL)
LogPA−(d) 1-octanol-water partition coefficient [2]: 2.2
SMILES: C[C@H](CCC(=O)O)[C@H]1CC[C@H]2[C@@H]3[C@@H](O)C[C@@H]4C[C@H](O)CC[C@]4(C)[C@H]3CC[C@]12C [UDCA, ursodeoxycholic acid]
